Among the data in patent US5556859A, “N-(4-pyrimidinyl)amide pesticides” (DowElanco, priority 1994, dated 1996) are mortality values, retold here.

The structures appear in SMILES notation.

Assay [1] relates to peanut root knot nematode (Meloidogyne arenaria). Briefly: whole plant or invertebrate. To be noted: in Arachis hypogaea, read-out: percent mortality, RKN.
Assay [2] relates to cotton aphid (Aphis gossypii). Briefly: whole plant or invertebrate. To be noted: 72 h, read-out: percent mortality, CA.
The subject of assay [3] is two spotted spider mite (Tetranychus urticae). Kind of assay: whole plant or invertebrate. To be noted: 72 h, read-out: percent mortality, TSSM.
Assay [4] concerns tobacco budworm (Heliothis virescens). Briefly: Activity against tobacco budworm (TBW). The assay is classed as in vivo. To be noted: 144 h, read-out: percent mortality, TBW. Here is the method: In conducting evaluations of insecticidal activity, each test compound was formulated as a 400 ppm solution, and this solution was then diluted with water to give lesser concentrations. The 400 ppm solution was prepared by combining 19.2 mL of 0.05% solution of Tween 20 (polyoxyethylene (20) sorbitan monolaurate) in water with a solution of 8 mg of the compound in 0.8 mL of acetone/EtOH (9/1).
Activity against tobacco budworm (Heliothis virescens) was evaluated as follows. A general purpose lepidoptera artificial diet was diluted to half strength with a 5% non nutritive agar. 8 mL of this diet material was dispensed into each one ounce diet cup. One hour prior to treatment 18 to 20 eggs were dispensed onto the diet surface. The cups were then sprayed with formulated material through a flat-fan nozzle. The test was run using concentrations of 400 ppm and 50 ppm. Treated cups were air dried prior to sealing with plastic caps. The cups were held for 6 days at room temperature. Activity was then rated based on the total number of live and dead larvae, and on the size of live larvae.

The test system of assay [5] is German cockroach (Blattella germanicus). Briefly: whole plant or invertebrate. To be noted: 240 h, read-out: percent mortality, GECR.
The test system of assay [6] is beet armyworm (Spodoptera exiqua). Kind of assay: whole plant or invertebrate. To be noted: 144 h, read-out: percent mortality, BAW.
Assay [7] concerns Southern corn rootworm (Diabrotica undecimpuctata howardi Barber). Kind of assay: whole plant or invertebrate. To be noted: in Zea mays, soil, read-out: percent mortality, SCRW.

Take `O=C(Cc1ccc(OCC(F)(F)F)cc1)Nc1ccncn1` [Compound 28, 4-(2,2,2-trifluroethoxy)phenyl-N-(4-pyrimidinyl)acetamide]: the mortality at 400 ppm in assay [1] amounted to 0%; in assay [2], 100%; in assay [3], 0%; in assay [4], 0%; in assay [5], 0%; in assay [6] it was 0%. Also, the mortality at 24 µg/g in assay [7] is 0%.

Turning to `O=C(Cc1ccc(Oc2ccc(Cl)cc2)cc1)Nc1ccnc(C2CC2)n1` [Compound 29, 4-(4-chlorophenoxy)phenyl-N-(2-cyclopropyl-4-pyrimidinyl)acetamide], the mortality at 400 ppm in assay [1] is 0%; in assay [2], 100%; in assay [3], 100%; in assay [4], 100%; in assay [5], 100%; in assay [6], 100%. In assay [7], the mortality at 24 µg/g is 0%.

In the case of `CC(C)c1nccc(NC(=O)Cc2ccc(OCC(F)(F)F)cc2)n1` [Compound 30, 4-(2,2,2-trifluroethoxy)phenyl-N-(2-(1-methylethyl)-4-pyrimidinyl)acetamide], the mortality at 400 ppm in assay [1] amounted to 100%; in assay [2], 100%; in assay [3], 100%; in assay [4], 90%; in assay [5] it was 80%; in assay [6], 100%. For the same molecule, the mortality at 24 µg/g in assay [7] came out at 100%.

Regarding `CC(C)c1nccc(NC(=O)Cc2ccc(Oc3ccc(F)cc3)cc2)n1` [Compound 31, 4-(4-fluorophenoxy)phenyl-N-(2-(1-methylethyl)-4-pyrimidinyl)acetamide], the mortality at 400 ppm was 0% in assay [1]; 100% in assay [2]; 100% in assay [3]; 100% in assay [4]; 100% in assay [5]; 100% in assay [6]. Also, the mortality at 24 µg/g in assay [7] was 0%.

As to `CCc1nccc(NC(=O)Cc2ccc(Oc3ncc(C(F)(F)F)cc3F)cc2)n1` [Compound 32, 4-(3-fluoro-5-trifluromethyl-2-pyridinyloxy)phenyl-N-(2-ethyl-4-pyrimidinyl)acetamide], the mortality at 400 ppm amounted to 100% in assay [1]; 100% in assay [2]; 100% in assay [3]; 100% in assay [4]; 60% in assay [5]; 100% in assay [6]. For the same molecule, the mortality at 24 µg/g in assay [7] was found to be 0%.

As for `CCCCCCCCC(C)C(=O)Nc1ccnc(CC)n1` (centres unmarked) [Compound 33, N-(2-ethyl-4-pyrimidinyl)-2 methyldecamide], the mortality at 400 ppm in assay [1] came out at 0%; in assay [2] it was 80%; in assay [3] it was 40%; in assay [4], 0%; in assay [5] it was 20%; in assay [6], 0%. Also, the mortality at 24 µg/g in assay [7] is 0%.

With `CCCCCCCCCCCCCCCCCC(=O)Nc1ccnc(CC)n1` [Compound 34], the mortality at 400 ppm came to 0% in assay [1]; 0% in assay [2]; 0% in assay [3]; 0% in assay [4]; 20% in assay [5]; 0% in assay [6]. For the same molecule, the mortality at 24 µg/g in assay [7] stood at 0%.

On to `CCc1nccc(NC(=O)Cc2ccc(OCC(F)(F)F)cn2)n1` [Compound 35, 5-(2,2,2-trifluoromethoxy)-2-pyridinyl-N-(2-ethyl-4-pyrimidinyl)acetamide], for which the mortality at 400 ppm in assay [1] worked out at 100%; in assay [2], 100%; in assay [3] it was 100%; in assay [4], 60%; in assay [5] it was 80%; in assay [6], 100%. In assay [7], the mortality at 24 µg/g turned out to be 100%.

As a reminder, the mortality is the percentage killed.
